This note sets out measurements from patent US20120071493A1, “SUBSTITUTED 8-SULFONYL-2,3,4,5-TETRAHYDRO-1H-GAMMA-CARBOLINES, LIGANDS AND PHARMACEUTICAL COMPOSITION; METHOD FOR THE PRODUCTION AND USE OF SAME” (priority 2009, published 2012).

Structures can show the parent of a compound that is named as a salt.

Assay [1] addresses T1, recombinant human 5-HT6 receptor (Homo sapiens, UniProt P50406).
T1 construct: host or cells: HEK 293 cells with tetracycline-induced T-Rex system (Invitrogen)
In words: Antagonistic activity towards serotonin 5-HT6 receptors, cAMP cell function experiment. It is filed as cell-based. The note with it: HEK 293 cells expressing recombinant human 5-HT6 receptor; cAMP response to 10 μM serotonin; read-out: IC50, ability to block serotonin 5-HT6 receptors in the setting of cell function experiments. The method, then: Determination of antagonistic activity of substituted 8-sulfonyl-2,3,4,5-tetrahydro-1H-γ-carbolines of the general formula 1 towards serotonin 5-HT6 receptors. HEK 293 cells with tetracycline-induced T-Rex system (Invitrogen, USA) consistently expressing recombinant human 5-HT6 receptor, production of Etogen Scientific (USA), were used. The cells were grown in DMEM/10% FBS/1% AAS medium with Blasticidine S and Zeocin (both—Invitrogen, USA). According to the method worked up by the producer of T-Rex system tetracycline hydrochloride was added to the medium with the cells for the purpose of activation of 5-HT6 receptor expression. The cells were embedded in 96-well plates (30,000-40,000 cells per well) and incubated in 5%-CO2 incubator at 37° C. for 24 hs. Before experiments cells medium was replaced by Hank's balanced salt solution (HBSS), comprising 0.137 M NaCl, 5.4 mM KCl, 0.25 mM Na2HPO4, 0.44 mM KH2PO4, 1.3 mM CaCl2, 1.0 mM MgSO4, 5 mM HEPES (pH 7.4), 0.05% BSA and 1 mM IBMX. The tested compounds of general formula 1 were added to the cells in various concentrations. After incubation of the cells for 15 min at room temperature serotonin was added to them up to final concentration of 10 μM and incubation was continued for 30 min. The newly formed cAMP was determined by reagent kit LANCE cAMP Kit, according to the method described by the kit manufacturer […] (PerkinElmer, CIIIA). […] The data given testify that novel γ-carbolines of the general formula 1 are effective serotonin 5-HT6 receptor antagonists. Some of γ-carbolines of the general formula 1 have IC50<0.5 μM in the setting of cell function experiments (IC50—antagonist concentration blocking 5-HT6 receptors for 50%).

Another assay has as its system male mice of BALB/c line. As to the kind of experiment: Mice Behavior in the Elevated Plus Maze test. It is filed as in vivo. On the procedure: The experiments were carried out in aged male mice of BALB/c line weighing about 25 g. Animals were housed 5-7 per cage with water and food available. None of animals was acquainted with experimental set-up before. Each experimental group included 8 animals.
The procedure used was described earlier by Lister (Lister R. G. The use of a plus-maze to measure anxiety in the mouse. Psychopharmacology, 1987; 92:180-185). Plexiglass set-up consisted of two opened arms of 30×5 cm size and two closed arms of 30×5×15 cm size was used. Side arms were closed with transparent plexiglass and were connected with central zone via platform of 5×5 cm size. Opened arms, central platform and floor were made of black plexiglass. The set-up was mounted on a metallic base which was placed 38.5 cm above floor level.
Animals were injected intraperitoneally with placebo, Buspirone (5 mg/kg, 30 minutes before training), Lorazepam (0.05 mg/kg, 60 minutes before training) or with one of the compounds of the general formula 1, for example, compound 1.1.1(4).HCl or compound 1.2.1(3).HCl in doses 0.05 mg/kg and 0.2 mg/kg. Buspirone and Lorazepam were introduced in maximal effective dose, at which side sedative effect and general decrease of exploratory activity (number of arm entries during the test) were not observed yet.
Each mouse was placed in maze center with its head towards the opened arm. Over a period of 5 minutes the sequence and duration of arm entries were registered by means of computer program. Criterion for entry is location of all animal's paws inside the arm at the same time. Index of preference was calculated as ratio of the time spent by animal in opened arms as well as the number of entries into opened arms to the total time spent by it in opened and closed arms or, respectively, to the whole number of entries to arms of both types. The number of defecations left by mouse was regarded as additional parameter characterizing anxiety state.

The test system of a further assay is male mice of SHK line. In words: Novel Object Recognition test, Scopolamine-disturbed recognition. The following applies: Scopolamine 1 mg/kg. It is filed as in vivo. The method, then: The test was carried out in aged male mice of SHK line. Plexiglass plus maze, consisted of 4 dead-end chambers (numbered 1, 2, 3, 4), joined together through the fifth central chamber, was used in experiments. Mouse was placed into central chamber and allowed to explore the maze. Floor was cleaned after each animal. The sequence of chamber entries and duration of visits were registered by observer. Test was ended after 13 entries into dead-end chambers. Criterion for entry was location of all animal's paws inside the chamber at the same time.
During the training an animal was placed in the maze with one equiform bowl in each side chamber. In the course of testing (one hour after training) two opposite standing bowls were replaced by identical flasks, and animal was allowed to explore the maze. The time spent by animal in each side chamber was registered during the periods of training and testing. Index of novel object recognition was calculated as ratio of time spent by animal in side chambers with novel objects to the total time spent by it in all side chambers. In comparison with the training phase the appearance of novel object extends the time spent by animal in the chamber with novel object (so-called effect of novel object recognition). The recognition of novel objects was disturbed under action of Scopolamine administered in 1 mg/kg dose intraperitoneally 30 minutes before training, and recognition index was decreased.

T1 sequence (P50406 whole entry): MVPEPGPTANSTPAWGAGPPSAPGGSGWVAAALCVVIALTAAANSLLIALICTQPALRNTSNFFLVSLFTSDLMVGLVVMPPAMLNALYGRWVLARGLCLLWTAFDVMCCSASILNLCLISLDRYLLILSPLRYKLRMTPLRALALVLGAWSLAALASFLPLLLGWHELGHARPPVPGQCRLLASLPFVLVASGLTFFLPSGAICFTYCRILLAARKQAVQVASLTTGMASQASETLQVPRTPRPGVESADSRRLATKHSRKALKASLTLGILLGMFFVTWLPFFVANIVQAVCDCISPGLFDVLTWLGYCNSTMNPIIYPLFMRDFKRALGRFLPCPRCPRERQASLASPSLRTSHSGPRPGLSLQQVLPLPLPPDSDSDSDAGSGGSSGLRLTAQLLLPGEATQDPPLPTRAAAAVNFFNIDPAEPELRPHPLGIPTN

As for `CN1CCc2[nH]c3ccc(S(=O)(=O)c4cccnc4)cc3c2C1` [1.1(1)•2HCl], the IC50 in assay [1] was 0.085 µM.

For the compound `CN1CCc2[nH]c3ccc(S(=O)(=O)c4ccncc4)cc3c2C1` [1.1(2)•2HCl], the IC50 in assay [1] was found to be 6.9 µM.

On to `Cc1ccc(S(=O)(=O)n2c3c(c4cc(S(=O)(=O)c5ccccc5)ccc42)CN(C)CC3)cc1` [1.1(10)•HCl, 2-Methyl-5-(4-methylphenylsulfonyl)-8-(phenylsulfonyl)-2,3,4,5-tetrahydro-1H-γ-caboline hydrochloride], for which the half-maximal inhibitory concentration (IC50) in assay [1] was approximately 10 µM.

On to `CN1CCc2c(c3cc(S(=O)(=O)c4ccccc4)ccc3n2CCc2ccccn2)C1` [1.1(16)•2HCl], for which the IC50 in assay [1] is 0.615 µM.

`CN1CCc2[nH]c3ccc(S(=O)(=O)c4cccc(F)c4)cc3c2C1` [1.1.1(3)•HCl]: the IC50 in assay [1] stood at 0.085 µM.

Take `CN1CCc2[nH]c3ccc(S(=O)(=O)N(C)C)cc3c2C1` [1.2(1), N,N,2-Trimethyl-2,3,4,5-tetrahydro-1H-γ-carboline-8-sulfonamide]: in assay [1], the IC50 was approximately 10 µM.

Turning to `O=S(=O)(Nc1cccc(F)c1)c1ccc2[nH]c3c(c2c1)CN(Cc1ccccc1)CC3` [1.2(6)•HCl], in assay [1], the IC50 is 0.022 µM.

Take `CN1CCN(S(=O)(=O)c2ccc3[nH]c4c(c3c2)CN(C)CC4)CC1` [1.2(10)]: the IC50 in assay [1] is 62 µM.

`O=C1CC2(CCCC2)CC(=O)N1CCCCN1CCN(c2ncccn2)CC1` [Buspirone, reference compound]: in the assay on male mice of BALB/c line (5 mg/kg intraperitoneally, 30 minutes before training), the “anxiolytic effect in elevated plus maze” value is given as “well-marked anxiolytic effect”.

With `Cc1ccc2c(c1)c1c(n2CCc2ccc(C)nc2)CCN(C)C1` [Dimebon, reference compound], the “prevention of Scopolamine influence on novel object recognition” value in the assay on male mice of SHK line (0.1 mg/kg intraperitoneally 5 minutes before training) is “could be prevented”.

As to `O=C1Nc2ccc(Cl)cc2C(c2ccccc2Cl)=NC1O` (stereo not drawn) [Lorazepam, reference compound], the “anxiolytic effect in elevated plus maze” value in the assay with male mice of BALB/c line (0.05 mg/kg intraperitoneally, 60 minutes before training) is “well-marked anxiolytic effect”.

In the case of `Nc1c2c(nc3ccccc13)CCCC2` [Tacrine, reference compound], in the assay with male mice of SHK line (10 mg/kg intraperitoneally 30 minutes before training), the “prevention of Scopolamine influence on novel object recognition” value was “could be prevented”.

In general, IC50 refers to the concentration that inhibits the measured activity by half.
